COC(=O)c1c(Cl)nn(C)c1S(=O)(=O)NC(=O)Nc1nc(OC)cc(OC)n1
solubility (mole fraction)
Details	278.15 K	283.15 K	288.15 K	293.15 K	298.15 K	303.15 K	308.15 K	313.15 K	318.15 K	323.15 K
in DMF	0.000768	0.000905	0.00105	0.00123	0.00142	0.0016	0.00182	0.00204	0.00227	0.00254
in ethanol	3.56e-05	4.18e-05	4.87e-05	5.64e-05	6.48e-05	7.29e-05	8.22e-05	9.25e-05	0.000103	0.000116
in isopropanol	3.3e-06	3.57e-06	3.85e-06	4.17e-06	4.51e-06	4.93e-06	5.33e-06	5.71e-06	6.19e-06	6.64e-06
in water	3.24e-07	3.38e-07	3.51e-07	3.66e-07	3.81e-07	3.96e-07	4.11e-07	4.26e-07	4.44e-07	4.62e-07

Source: BigSolDB 2.1
